Data on one compound can be found in US12030929B2, “Fusobacterium nucleatum amyloid-like FadA for diagnosis and treatment of Fn-mediated pathogenesis” (The Trustees of Columbia University in the City of New York, priority 2021, dated 2024).

Common to all, as to format: cell-based, Fusobacterium nucleatum
The test system of data set [1] is Fn 12230. The data set is described as follows: Biofilm assay: Fn biofilm formation on detergent-resistant Fn pellets. To be noted: 0, 10 or 50 μg/ml Congo Red; 48 or 72 hours; crystal violet OD550. The procedure:
FIG. 4A-4F. Functional analysis of amyloid-like FadA in vitro. 4A. Facilitation of Fn biofilm formation by amyloid-like FadA. An aliquot of 10 μg each of the detergent-resistant pellets prepared from of Fn 12230 (wild type), US1 (ΔfadA) and lam, or PBS, was added to the 96-well plates and incubated at 37° C. for 5 hours. Fresh culture of Fn 12230 was diluted to OD600 of 0.2 and an aliquot of 200 μl was added to the wells, followed by incubation at 37° C. for 48 or 72 hours under anaerobic conditions. Following washes, the biofilms were incubated with 100 μl 0.1% crystal violet for 15 min. After washing, 100 μl 95% ethanol was added to each well and the optical density at OD550 was measured in a microplate reader. The results shown are the average of four experiments each performed in duplicate. A representative image following 72 hours of incubation is shown in the top panel. **p<0.01. ***p<0.001 (t-test). 4B. Inhibition of biofilm formation mediated by detergent-resistant Fn pellets by Congo Red. An aliquot of 10 μg detergent-resistant pellets prepared from Fn 12230 (pellet) was added in 96-well plates in the presence of 0, 10 or 50 μg/ml Congo Red (CR), followed by addition of Fn 12230 and incubated as described above. The results shown are the average of four experiments each performed in duplicate. […]

Data set [2] deals with Fn 12230. The data set is described as follows: Effects of Congo Red on Fn viability (OD600 and CFU). To be noted: incubation 48 or 72 hrs. The procedure:
FIG. 10A-10B. 10A. Schematic illustration of preparation of detergent-resistant bacterial pellets and its use as scaffold for biofilm growth. 10B. Effects of Congo Red on Fn viability. Fn 12230 was incubated in PBS (top row), 10 mg/ml Congo Red (10 CR), or 50 mg/ml Congo Red (50 CR) for 48 hrs (left panel) or 72 hrs (right panel), followed by measurement of OD600 (OD) and viable counts (CFU).

Data set [3] deals with Fn 12230. The data set is described as follows: pH tolerance assay, wild-type Fn. To be noted: stationary phase; pH 4.0; 50 μg/ml Congo Red; 1 or 2 hours.

With `Nc1c(/N=N/c2ccc(-c3ccc(/N=N/c4cc(S(=O)(=O)O)c5ccccc5c4N)cc3)cc2)cc(S(=O)(=O)O)c2ccccc12` [Congo Red], the “biofilm formation mediated by detergent-resistant Fn pellets” value in the data set with Fn 12230 [1] is listed as “inhibited biofilm formation in a dose-dependent manner”. In addition, the “viability of Fn” value in the data set with Fn 12230 [2] is given as “without affecting the viability of Fn”. In the data set on Fn 12230 [3], the “viability of wild-type Fn in acidic environment” value was “drastically reduced viability of wild-type Fn to the similar levels as US1”.
